Laboratory results reported in EP4342890A1, “PLATFORM AND SCAFFOLD FOR FAP TARGETING AGENTS” (Erasmus University Rotterdam Medical Center, priority 2022, dated 2024).

Columns and labels:
FAP [1] = target: T1, FAP (Homo sapiens, UniProt Q12884); experiment: In vitro inhibition assay on human FAP (Z-GP-AMC substrate); type: biochemical; conditions: enzymatic assay; 20 µM Z-GP-AMC, 20 nM FAP; unit inferred
T1 sequence (Q12884 1-760): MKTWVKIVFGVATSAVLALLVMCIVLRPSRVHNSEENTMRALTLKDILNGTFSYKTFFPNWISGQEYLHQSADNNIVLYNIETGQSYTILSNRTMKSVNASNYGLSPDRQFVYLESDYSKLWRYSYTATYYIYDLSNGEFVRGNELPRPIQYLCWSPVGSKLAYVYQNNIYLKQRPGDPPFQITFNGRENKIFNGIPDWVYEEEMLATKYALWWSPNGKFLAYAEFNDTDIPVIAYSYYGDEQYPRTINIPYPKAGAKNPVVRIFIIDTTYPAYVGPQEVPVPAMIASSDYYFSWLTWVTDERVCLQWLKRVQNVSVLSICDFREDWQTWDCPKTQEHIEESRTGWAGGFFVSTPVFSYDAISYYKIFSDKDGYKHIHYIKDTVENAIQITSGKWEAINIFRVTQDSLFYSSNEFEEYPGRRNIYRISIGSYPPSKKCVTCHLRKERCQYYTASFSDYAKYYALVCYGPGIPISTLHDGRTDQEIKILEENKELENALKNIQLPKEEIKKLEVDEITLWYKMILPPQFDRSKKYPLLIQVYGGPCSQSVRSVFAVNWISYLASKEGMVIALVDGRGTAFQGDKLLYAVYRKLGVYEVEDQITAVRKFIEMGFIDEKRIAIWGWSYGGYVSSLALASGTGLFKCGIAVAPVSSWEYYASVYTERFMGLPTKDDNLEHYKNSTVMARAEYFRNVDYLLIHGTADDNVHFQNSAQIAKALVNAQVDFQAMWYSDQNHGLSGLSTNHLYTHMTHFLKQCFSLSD
Protocol: Enzymatic activity of human FAP (hFAP) and mouse FAP (mFAP) on the Z-GP-AMC substrate was measured at room temperature on a Hidex microplate reader by monitoring the fluorescence at an excitation wavelength of 360 nm and an emission wavelength of 465 nm. The reaction mixture contained 20 µM substrate, 20 nM FAP, assay buffer (50 mM Tris, 100 mM NaCl, 1 mM EDTA, pH 7.4) and tested compound (serial dilution from 10^-6 to 10^-12) in a total volume of 50 µL.

HT-1080.hFAP tumor = experiment: Biodistribution study in HT-1080.hFAP tumor bearing mice; type: in vivo; conditions: indium-111 labelled
Description: Six-week-old male Balb/c nu/nu-specific and opportunistic pathogen-tree (SOPF) mice were housed in individually ventilated cages, with 4 mice per cage. Upon arrival, mice were acclimated for 1 week, with access to food and water ad libitum. Mice were subcutaneously inoculated on the right shoulder with U-87 or HT-1080.hFAP cells (1 × 10^6 cells). Xenografts were allowed to grow until they reached an appropriate size at the start of the studies. All animal experiments were approved by the Animal Welfare Committee of the Erasmus MC and were conducted in agreement with institutional guidelines (license number: AVD101002017867).
Biodistribution studies were performed to determine tumor and organ uptake of the radiolabeled eFAP compounds. Animals (n = 4 for each time point and each compound) were injected intravenously with an average of 100 kBq/0.5 nmol at t=0. At 3 selected time points (1, 4 and 24 h) p.i. blood was collected via cardiac puncture under isoflurane/O2 anesthesia, after which the mice were sacrificed. The tumor and organs of interest (prostate, pancreas, spleen, gall bladder, liver, stomach, small intestine, coecum, colon, adrenals, kidney, lung, heart, salivary glands, muscle, bone, brain were excised, washed in PBS and blotted dry. The blood, tumor, and relevant organs were weighed and measured in a γ-counter. To determine the total injected radioactivity per animal, calibration curve with indium-111 and lutetium-177 were determined. The percentage of injected dose per gram (% ID/g) was determined for each tissue sample and corrected for both the injected volume and % ID present at the injection site (the tail).
Comparison of the biodistribution in selected organs of [^111In]In-FAPI-46 and [^111In]In-eFAP-6 in HT-1080.hFAP tumor bearing mice are given in Figure 8.

FAP [2] = target: T1, FAP; experiment: Competitive binding assay against [111In]In-FAPI-46 in HT-1080.hFAP cells; set-up: expressed in transfected cells; host or cells: HT-1080.hFAP cells; conditions: competition with [111In]In-FAPI-46 in HT-1080.hFAP cells, 37 °C, 1 h; unit inferred
Protocol: The U-87 MG glioblastoma was cultured at 37 °C and 5% CO2 in Dulbecco's Modified Eagle Medium (DMEM) supplemented with 10 % (v/v) fetal calf serum. HT-1080.hFAP cells were kept in culture in DMEM medium supplemented with fetal bovine serum (10%, FBS) and antibiotic antimycotic (1%, AA) at 37 °C and 5% CO2. For passaging, cells were detached using Trypsin-EDTA 0.05% when reaching 90% confluence and re-seeded at a dilution of 1:4.
Competition binding experiments were conducted by incubation of the [^111In]In-FAPI-46 radioligand with increasing concentrations of eFAP compound in HT-1080.hFAP cells at 37 °C for 1 h. Cells were then washed three times with binding buffer and lysed. The cell-associated radioactivity was measured in a γ-counter. The IC50 values were calculated by fitting the data by non-linear regression using GraphPad Prism.

[3] = intravenous, HT-1080.hFAP tumor bearing mice

SMILES: N#C[C@@H]1CC(F)(F)CN1C(=O)CNC(=O)c1ccnc2c(OCCCNC(=O)CN3CCN(CC(=O)O)CCN(CC(=O)O)CCN(CC(=O)O)CC3)cccc12 [eFAP-6, (S)-2,2',2"-(10-(2-((3-((4-((2-(2-Cyano-4,4-difluoropyrrolidin-1-yl)-2-oxoethyl)carbamoyl)quinolin-8-yl)oxy)propyl)amino)-2-oxoethyl)-1,4,7,10-tetraazacyclododecane-1,4,7-triyl)triacetic acid]
- IC50 (FAP [1]): 1.6 ± 0.5 nM
- tumor targeting performance (HT-1080.hFAP tumor; compared with the clinical reference): comparable with that of FAPI-46
- background uptake in healthy organs (HT-1080.hFAP tumor; [3]): low background uptake in healthy organs
- tumor uptake (HT-1080.hFAP tumor; [3]): high and rapid tumor uptake
- clearance from the body (HT-1080.hFAP tumor; intravenous, mice): rapid clearance from the body
- IC50 (FAP [2]): 0.66 nM
